Measurements from the supplement of paper PMC5579334.
± gives the standard deviation of the averaged measurements.

Tests used:
[1] = tested on: HSC1 (primary human Schwann cells); test: drug sensitivity score (DSS, CellTiter-Glo viability, 72 h) (DSS (dimensionless)); higher = more sensitive; extreme values may be limits of the assay
Method in brief: (§1)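 Viability of MPNST cell lines and primary human Schwann cells was read as CellTiter-Glo ATP luminescence after 72 h at 37 °C, 5% CO2, in 384-well plates seeded with 750–1000 cells per well. Each compound had been preprinted at five concentrations in 10-fold steps. Signals were scaled between vehicle and positive-control wells, duplicates averaged where present, and fitted with four-parameter logistic curves. Drug sensitivity score and relative IC50 (censored at the top concentration) come from those fits, and percent inhibition is taken at the top concentration.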

[2] = tested on: HSC2 (primary human Schwann cells); test: as above
Method in brief: as §1

[3] = tested on: S1507-2; test: as above
Method in brief: as §1

[4] = tested on: S462; test: as above
Method in brief: as §1

[5] = tested on: ST8814; test: as above
Method in brief: as §1

[6] = tested on: STS26T; test: as above
Method in brief: as §1

[7] = tested on: HSC1 (primary human Schwann cells); test: drug sensitivity score (DSS, CellTox-Green cytotoxicity, 72 h) (DSS (dimensionless)); higher = more cytotoxic; extreme values may be limits of the assay
Method in brief: (§2)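 MPNST cell lines and primary human Schwann cells were grown for 72 h at 37 °C in 384-well plates containing five 10-fold compound dilutions. CellTox-Green, added before seeding at a final 1:1000 dilution, gave fluorescence from DNA released by disrupted cells, and signals were scaled to vehicle and positive-control wells. Curves were fitted with a four-parameter logistic model. Drug sensitivity score and relative IC50 come from these fits, with IC50 censored at the top concentration.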

[8] = tested on: HSC2 (primary human Schwann cells); test: as above
Method in brief: as §2

[9] = tested on: S1507-2; test: as above
Method in brief: as §2

[10] = tested on: ST8814; test: as above
Method in brief: as §2

[11] = tested on: STS26T; test: as above
Method in brief: as §2

[12] = tested on: HSC1 (primary human Schwann cells); test: % inhibition of CellTiter-Glo viability at highest tested concentration (72 h), relative to DMSO and benzethonium chloride controls; higher = more inhibition
Method in brief: as §1

[13] = tested on: HSC2 (primary human Schwann cells); test: as above
Method in brief: as §1

[14] = tested on: S1507-2; test: as above
Method in brief: as §1

[15] = tested on: S462; test: as above
Method in brief: as §1

[16] = tested on: ST8814; test: as above
Method in brief: as §1

[17] = tested on: STS26T; test: as above
Method in brief: as §1

Compound | drug sensitivity score [1] | drug sensitivity score [2] | drug sensitivity score [3] | drug sensitivity score [4] | drug sensitivity score [5] | drug sensitivity score [6] | drug sensitivity score [7] | drug sensitivity score [8] | drug sensitivity score [9] | drug sensitivity score [10] | drug sensitivity score [11] | % inhibition [12] | % inhibition [13] | % inhibition [14] | % inhibition [15] | % inhibition [16] | % inhibition [17]
Cn1cnc2c(F)c(Nc3ccc(Br)cc3F)c(C(=O)NOCCO)cc21 [MEK-162] (max concentration tested 1000 nM) | 0.0621 | 0 | 1.31 ± 1.3 | 2.73 ± 0.038 | 1.66 | 2.04 | 0 | 0 | 0 | 0 | 0 | 15.1% | -2.17% | 19.9 ± 8.2% | 29.8 ± 0.71% | 23.8% | 24.5%
N[C@@H](Cc1ccc(N(CCCl)CCCl)cc1)C(=O)O [Melphalan aq] (max concentration tested 12500 nM) | 0.445 | 0 | 0 | 0 | 0 | 0 | 0 | 0 | 0 | 0 | 0 | 18.7% | 6.78% | 6.15 ± 8.2% | 5.6 ± 3% | 3.22% | 2.1%
O=C(O)C1(C(=O)O)CCC1.[NH2-].[NH2-].[Pt+2] [Carboplatin aq] (max concentration tested 100000 nM) | 8.01 | 8.82 | 5.78 ± 1.4 | 8.728 ± 0.04 | 6.09 | 6.61 | 6.3 | 7.86 | 2.71 ± 1.2 | 6.79 | 4.47 | 85.9% | 93.2% | 73.8 ± 1.3% | 98.3 ± 1% | 87.5% | 81.2%
Cn1nnc2c(C(N)=O)ncn2c1=O [Temozolomide] (max concentration tested 10000 nM) | 0 | 0 | 0.17 ± 0.24 | 0 | 0.0241 | 0 | 0 | 0 | 0 | 0 | 0 | 8.86% | 2.06% | 9.8 ± 9.4% | 2.61 ± 0.65% | 11.9% | 8.32%
CCCCC/C=C/C=C1/C(=O)C=C[C@@H]1C/C=C\CCCC(=O)O [15D-PGJ2] (max concentration tested 800 nM) | 0 | 0 | 0.113 ± 0.16 | 0 | 0 | 0 | 0 | 0 | 0 | 0 | 0 | 2.13% | 0.683% | 4.46 ± 11% | 0.683 ± 8.3% | -9.15% | -0.85%
CC1(C)CCC(CN2CCN(c3ccc(C(=O)NS(=O)(=O)c4ccc(NCC5CCOCC5)c([N+](=O)[O-])c4)c(Oc4cnc5[nH]ccc5c4)c3)CC2)=C(c2ccc(Cl)cc2)C1 [ABT-199] (max concentration tested 10000 nM) | 0.0759 | 0.781 | 0 | 0.138 ± 0.2 | 0.111 | 0 | 0 | 0 | 0.226 ± 0.32 | 0.467 | 0 | 14.4% | 23.8% | 8.98 ± 1.1% | 7.02 ± 15% | 15.5% | 3.69%
Cc1sc2c(c1C)C(c1ccc(Cl)cc1)=N[C@H](CC(=O)OC(C)(C)C)c1nnc(C)n1-2 [(-)JQ1] (max concentration tested 10000 nM) | 0.0114 | 0.217 | 0.382 ± 0.54 | 0.987 ± 0.67 | 0.724 | 0.598 | 0 | 0 | 0 | 0 | 0 | 11% | 15.6% | 12.5 ± 8.2% | 21.6 ± 8.9% | 20% | 15.6%
CC[C@@]1(O)C(=O)OCc2c1cc1n(c2=O)Cc2cc3ccccc3nc2-1 [Camptotechin] (max concentration tested 5000 nM) | 22.7 | 23.8 | 19.2 ± 0.92 | 26.995 ± 0.022 | 26.9 | 22 | 20.8 | 17.7 | 10.95 ± 0.027 | 30.9 | 13.2 | 101% | 102% | 100 ± 0.18% | 103.58 ± 0.083% | 100% | 102%
Cn1cc(C[C@@H](N)C(=O)O)c2ccccc21 [1-methyl-D-tryptophan aq] (max concentration tested 5000 nM) | 0 | 0 | 0 | 0 | 0 | 0 | 0 | 0.888 | 0.475 ± 0.58 | 0 | 0.0551 | 4.52% | 1.85% | 0.132 ± 6.3% | 0.824 ± 5.1% | -2.14% | -5.75%
CCCC(CCC)C(=O)O [Valproic acid aq] (max concentration tested 1000000 nM) | 4.34 | 4.4 | 1.59 ± 0.097 | 2.44 ± 0.31 | 3.83 | 1.5 | 0 | 0 | 0 | 0.307 | 0 | 68.2% | 59% | 20.7 ± 3.2% | 31.3 ± 17% | 44.4% | 28.3%
Oc1ncc(N(CCCl)CCCl)c(O)n1 [Uracil mustard] (max concentration tested 10000 nM) | 0 | 0 | 0 | 0 | 0 | 0 | 0 | 0 | 0 | 0 | 0 | 5.98% | 5.29% | -1.65 ± 8.9% | -1.32 ± 0.75% | 10.8% | 1.52%
CN(C)C(=N)NC(=N)N [Metformin aq] (max concentration tested 100000 nM) | 0 | 0 | 0 | 0 | 0 | 0 | 0 | 0 | 0.0766 ± 0.11 | 0 | 0 | -13.1% | -15.5% | 6.36 ± 5.3% | 1.42 ± 6.1% | 7.41% | 5.16%
CC(=O)N(O)CCCCCNC(=O)CCC(=O)N(O)CCCCCNC(=O)CCC(=O)N(O)CCCCCN [Deferoxamine aq] (max concentration tested 10000 nM) | 5.55 | 7.69 | 6.96 ± 1 | 6.82 ± 1.4 | 9.08 | 5.09 | 0 | 0 | 0.026 ± 0.037 | 3.55 | 0 | 60.6% | 64.9% | 61 ± 2.2% | 74.6 ± 9.3% | 88.2% | 52.3%
COCC1(CO)C(=O)C2CCN1CC2 (stereo not given) [Prima-1 Met] (max concentration tested 10000 nM) | 1.87 | 2.14 | 2.75 ± 3.9 | 1.58 ± 1.1 | 0 | 0.507 | 0 | 0 | 7.59 ± 11 | 0 | 0 | 26.3% | 32.4% | 6.31 ± 9.8% | 19.1 ± 8.4% | 8.31% | 14.6%
c1cc(CN2CCCNCCNCCCNCC2)ccc1CN1CCCNCCNCCCNCC1 [Plerixafor aq] (max concentration tested 10000 nM) | 0 | 0 | 0 | 0 | 0 | 0 | 0 | 2.79 | 5.26 ± 3 | 0 | 0.908 | -10.1% | -6.48% | -14.1 ± 20% | -4.54 ± 3.1% | 4.25% | 3.99%
Cc1c(CN2CCN(C(=O)[C@H](C)O)CC2)sc2c(N3CCOCC3)nc(-c3cnc(N)nc3)nc12 [GDC-0980] (max concentration tested 10000 nM) | 11.8 | 12.5 | 12.2 ± 0.97 | 10.5 ± 0.55 | 9.92 | 12.5 | 0 | 0 | 0.544 ± 0.76 | 1.59 | 0 | 82.8% | 80.9% | 79.39 ± 0.55% | 76.6 ± 3.3% | 90% | 83.4%
N[C@@H](CSC(c1ccccc1)(c1ccccc1)c1ccccc1)C(=O)O [S-trityl-L-cysteine] (max concentration tested 40000 nM) | 0.233 | 0 | 0 | 0.0379 ± 0.054 | 0 | 0.0666 | 0 | 0 | 0 | 0 | 0 | 14.8% | -1.33% | 3.83 ± 4.3% | 8.17 ± 9.1% | 7.25% | 13%
NC(=O)c1cccc2cn(-c3ccc(C4CCCNC4)cc3)nc12 (stereo not given) [MK-4827] (max concentration tested 10000 nM) | 2.86 | 1.47 | 5.09 ± 0.48 | 8.55 ± 0.22 | 8.12 | 6.01 | 0 | 0 | 0.763 ± 1.1 | 4.56 | 0.673 | 40% | 23.4% | 57.5 ± 6.1% | 86.1 ± 3% | 89.5% | 67.6%
Cc1sc2c(c1C)C(c1ccc(Cl)cc1)=N[C@@H](CC(=O)OC(C)(C)C)c1nnc(C)n1-2 [(+)JQ1] (max concentration tested 10000 nM) | 10.2 | 10.4 | 18.5 ± 0.8 | 11.3 ± 0.7 | 14.8 | 8.02 | 0 | 0 | 12.7 ± 1.7 | 5.02 | 0 | 61.1% | 66% | 86.1 ± 1% | 69.3 ± 1.7% | 75.6% | 43.2%
CCNC(=O)c1noc(-c2cc(C(C)C)c(O)cc2O)c1-c1ccc(CN2CCOCC2)cc1 [NVP-AUY922] (max concentration tested 1000 nM) | 21.6 | 22.6 | 20.5 ± 1.9 | 19.7 ± 3.3 | 19.4 | 18.3 | 19.6 | 20.4 | 20.6 ± 3.5 | 8.57 | 11.4 | 98.2% | 97.1% | 97.933 ± 0.086% | 98 ± 1.7% | 98.2% | 92.2%
